Results: the supplement of paper PMC10307832

Columns and labels:
Assay in all cases: relative viability (nuclei count vs DMSO), 5 days (fraction); higher = more cells survive
[1] = test system: 201T
Method in brief: (§1)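 After 5 days of treatment, lung cancer cells in 1536-well plates were fixed and stained in a single step (final 0.05% Triton X-100, 1% formaldehyde, 1 ug/ml Hoechst) and their nuclei counted on 4× images. Treatment had been applied by pin tool the day after seeding as one drug alone or as a fixed anchor-drug dose with five library-drug doses (not always all listed) in √10 steps. Relative viability is the nuclei count of treated wells divided by that of vehicle wells, and values are medians of duplicate plates.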

[2] = test system: COR-L 105
Method in brief: as §1

[3] = test system: ChaGo-K-1
Method in brief: as §1

[4] = test system: EPLC-272H
Method in brief: as §1

[5] = test system: H3255
Method in brief: as §1

[6] = test system: HCC-78
Method in brief: as §1

[7] = test system: HCC-827
Method in brief: as §1

[8] = test system: LC-2-ad
Method in brief: as §1

[9] = test system: LCLC-97TM1
Method in brief: as §1

[10] = test system: NCI-H1666
Method in brief: as §1

[11] = test system: NCI-H1915
Method in brief: as §1

[12] = test system: NCI-H2087
Method in brief: as §1

[13] = test system: NCI-H2126
Method in brief: as §1

[14] = test system: NCI-H2347
Method in brief: as §1

[15] = test system: NCI-H23
Method in brief: as §1

[16] = test system: NCI-H2405
Method in brief: as §1

[17] = test system: NCI-H322M
Method in brief: as §1

[18] = test system: NCI-H520
Method in brief: as §1

[19] = test system: NCI-H647
Method in brief: as §1

[20] = test system: NCI-H650
Method in brief: as §1

[21] = test system: NCI-H661
Method in brief: as §1

[22] = test system: PC-14
Method in brief: as §1

[23] = test system: RERF-LC-KJ
Method in brief: as §1

SMILES: O=C(O)c1ccc(-c2c[nH]c3ncc(-c4ccccc4)cc23)cc1C1CCCC1 + CS(=O)(=O)N1CCN(Cc2cc3nc(-c4cccc5[nH]ncc45)nc(N4CCOCC4)c3s2)CC1 [Pictilisib] (partner 1 µM)
- relative viability ([1]; first compound 0.04 µM): 0.695
- relative viability ([1]; first compound 0.1265 µM): 0.619
- relative viability ([1]; first compound 0.4 µM): 0.608
- relative viability ([1]; first compound 1.265 µM): 0.656
- relative viability ([2]; first compound 0.04 µM): 0.435
- relative viability ([2]; first compound 0.1265 µM): 0.429
- relative viability ([2]; first compound 0.4 µM): 0.497
- relative viability ([2]; first compound 1.265 µM): 0.388
- relative viability ([3]; first compound 0.04 µM): 0.788
- relative viability ([3]; first compound 0.1265 µM): 1.11
- relative viability ([3]; first compound 0.4 µM): 0.649
- relative viability ([3]; first compound 1.265 µM): 0.923
- relative viability ([4]; first compound 0.04 µM): 0.381
- relative viability ([4]; first compound 0.1265 µM): 0.318
- relative viability ([4]; first compound 0.4 µM): 0.266
- relative viability ([4]; first compound 1.265 µM): 0.342
- relative viability ([5]; first compound 0.04 µM): 0.502
- relative viability ([5]; first compound 0.1265 µM): 0.529
- relative viability ([5]; first compound 0.4 µM): 0.441
- relative viability ([5]; first compound 1.265 µM): 0.462
- relative viability ([6]; first compound 0.04 µM): 0.231
- relative viability ([6]; first compound 0.1265 µM): 0.263
- relative viability ([6]; first compound 0.4 µM): 0.179
- relative viability ([6]; first compound 1.265 µM): 0.168
- relative viability ([7]; first compound 0.04 µM): 1.12
- relative viability ([7]; first compound 0.1265 µM): 1.12
- relative viability ([7]; first compound 0.4 µM): 0.965
- relative viability ([7]; first compound 1.265 µM): 0.859
- relative viability ([8]; first compound 0.04 µM): 0.48
- relative viability ([8]; first compound 0.1265 µM): 0.46
- relative viability ([8]; first compound 0.4 µM): 0.462
- relative viability ([8]; first compound 1.265 µM): 0.351
- relative viability ([9]; first compound 0.04 µM): 0.228
- relative viability ([9]; first compound 0.1265 µM): 0.183
- relative viability ([9]; first compound 0.4 µM): 0.192
- relative viability ([9]; first compound 1.265 µM): 0.17
- relative viability ([10]; first compound 0.04 µM): 0.406
- relative viability ([10]; first compound 0.1265 µM): 0.439
- relative viability ([10]; first compound 0.4 µM): 0.451
- relative viability ([10]; first compound 1.265 µM): 0.251
- relative viability ([11]; first compound 0.04 µM): 0.992
- relative viability ([11]; first compound 0.1265 µM): 0.876
- relative viability ([11]; first compound 0.4 µM): 0.94
- relative viability ([11]; first compound 1.265 µM): 0.803
- relative viability ([12]; first compound 0.04 µM): 0.963
- relative viability ([12]; first compound 0.1265 µM): 1.09
- relative viability ([12]; first compound 0.4 µM): 0.758
- relative viability ([12]; first compound 1.265 µM): 0.712
- relative viability ([13]; first compound 0.04 µM): 0.551
- relative viability ([13]; first compound 0.1265 µM): 0.486
- relative viability ([13]; first compound 0.4 µM): 0.497
- relative viability ([13]; first compound 1.265 µM): 0.46
- relative viability ([14]; first compound 0.04 µM): 0.622
- relative viability ([14]; first compound 0.1265 µM): 0.789
- relative viability ([14]; first compound 0.4 µM): 0.621
- relative viability ([14]; first compound 1.265 µM): 0.75
- relative viability ([15]; first compound 0.04 µM): 0.532
- relative viability ([15]; first compound 0.1265 µM): 0.519
- relative viability ([15]; first compound 0.4 µM): 0.43
- relative viability ([15]; first compound 1.265 µM): 0.428
- relative viability ([16]; first compound 0.04 µM): 0.458
- relative viability ([16]; first compound 0.1265 µM): 0.543
- relative viability ([16]; first compound 0.4 µM): 0.383
- relative viability ([16]; first compound 1.265 µM): 0.408
- relative viability ([17]; first compound 0.04 µM): 0.564
- relative viability ([17]; first compound 0.1265 µM): 0.526
- relative viability ([17]; first compound 0.4 µM): 0.487
- relative viability ([17]; first compound 1.265 µM): 0.482
- relative viability ([18]; first compound 0.04 µM): 0.288
- relative viability ([18]; first compound 0.1265 µM): 0.268
- relative viability ([18]; first compound 0.4 µM): 0.299
- relative viability ([18]; first compound 1.265 µM): 0.262
- relative viability ([19]; first compound 0.04 µM): 0.418
- relative viability ([19]; first compound 0.1265 µM): 0.38
- relative viability ([19]; first compound 0.4 µM): 0.478
- relative viability ([19]; first compound 1.265 µM): 0.344
- relative viability ([20]; first compound 0.04 µM): 0.993
- relative viability ([20]; first compound 0.1265 µM): 0.889
- relative viability ([20]; first compound 0.4 µM): 0.701
- relative viability ([20]; first compound 1.265 µM): 0.681
- relative viability ([21]; first compound 0.1265 µM): 0.464
- relative viability ([21]; first compound 0.4 µM): 0.508
- relative viability ([21]; first compound 1.265 µM): 0.424
- relative viability ([22]; first compound 0.04 µM): 0.765
- relative viability ([22]; first compound 0.1265 µM): 0.947
- relative viability ([22]; first compound 0.4 µM): 0.713
- relative viability ([22]; first compound 1.265 µM): 0.801
- relative viability ([23]; first compound 0.04 µM): 0.487
- relative viability ([23]; first compound 0.1265 µM): 0.594
- relative viability ([23]; first compound 0.4 µM): 0.503
- relative viability ([23]; first compound 1.265 µM): 0.501
